Results as given in US5238936A, “Trisubstituted triazines” (Adir et Compagnie, priority 1991, dated 1993).

Columns and labels:
[1] = tested on: resistant line P/388/VCR; assay: Antitumour activity in vivo: increase in antitumour activity of vincristine on murine leukaemia P 388/VCR; set-up: species or system murine; female B6D2Fl mice; settings: with vincristine […] i.p., no compound: 146 ± 2
Excerpt: This study was completed by an in vivo study, using a murine leukaemia resistant to vincristine (P/388/VCR) and using the compounds in association with vincristine.
The sensitive parent line P 388 (murine leukaemia) and the sub-line resistant to vincristine, P 388/VCR, were supplied by NCI (Frederick, USA). The tumour cells (10^6 cells) were inoculated on day 0 into the intraperitoneal cavity of female B6D2Fl mice (Iffa Credo, France) weighing from 18 to 20 g (groups of 8 to 10 animals).
Every day for 4 days, starting from day 1, the animals received: […]
30 to 60 minutes later, an administration by the i.p. route of 0.25 mg/kg of vincristine (used as a reference antitumour agent).
The tumour activity is expressed as follows: [formula]
The values are mean values obtained in independent experiments (± sem when n is greater than or equal to 3).

[2] = tested on: line DC-3F/AD; assay: Cytotoxicity (Microculture Tetrazolium Assay): reversal of resistance to actinomycin D, line DC-3F/AD; assay type: cell-based, Chinese hamster; settings: 4 days
[3] = tested on: line DC-3F/AD; assay: Flow cytometry: intracellular accumulation of adriamycin by cells of the line DC-3F/AD; assay type: cell-based, Chinese hamster; settings: ADR 50 μM, 5 hours
[4] = tested on: Plasmodium falciparum; settings: resistance to chloroquine; cited from earlier work
[5] = 50 mg/kg i.p. daily for 4 days, ± sem
[6] = 100 mg/kg i.p. daily for 4 days, ± sem

| SMILES | T/C % [1, 5] | T/C % [1, 6] | Reversion factors (cytotoxicity) with the line DC-3F/AD ([2]; 0.5 μM compound) | Reversion factors (cytotoxicity) with the line DC-3F/AD ([2]; 1 μM compound) | Reversion factors (cytotoxicity) with the line DC-3F/AD ([2]; 5 μM compound) | VAR-MEAN (increase in ADR fluorescence), line DC-3F/AD ([3]; 1.0 μM compound) | VAR-MEAN (increase in ADR fluorescence), line DC-3F/AD ([3]; 5.0 μM compound) | VAR-MEAN (increase in ADR fluorescence), line DC-3F/AD ([3]; 10 μM compound) | VAR-MEAN (increase in ADR fluorescence), line DC-3F/AD ([3]; […] compound) | sensitivity of a chloroquine-resistant line [4] | T/C % ([1]; 75 mg/kg i.p. daily for 4 days) |
| --- | --- | --- | --- | --- | --- | --- | --- | --- | --- | --- | --- |
| C=CCNc1nc(NCC=C)nc(N2CCC(NCC3c4ccccc4CCCc4ccccc43)CC2)n1 [Example 20, 2,4-diallylamino-6-{4-[(5,6,7,12-tetrahydrodibenzo[a,d]cycloocten-12-yl)methylamino]piperidin-1-yl}-1,3,5-triazine] | 161% | 174% | 3.4 | 52 | 2951 | 8.2 | 22.3 | 21.6 | 19.7 | – | – |
| C=CCNc1nc(NCC)nc(N2CCC(NCC3c4ccccc4CCc4ccccc43)CC2)n1 [Example 22, 2-allylamino-4-ethylamino-6-{4-[(10,11-dihydro-5H-dibenzo[a,d]cyclohepten-5-yl)methylamino]piperidin-1-yl}-1,3,5-triazine] | 159% | 165% | 32 | 177 | 2499 | 15.1 | 23.1 | 24.9 | 21.9 | – | – |
| COc1ccc(CCN(C)CCCC(C#N)(c2ccc(OC)c(OC)c2)C(C)C)cc1OC (stereo not shown) [verapamil, reference compound] | 164% | – | – | – | – | 2.1 | 5.6 | 8.9 | 4.0 | restores the sensitivity of a resistant line | 177% |
